Substitutions are numbered along the chain they refer to. Read-outs that look alike come from different tables or passages of the source.
Legend:
M1 W101A receptor [1] = target: T1, M1 W101A receptor (Rattus norvegicus, UniProt P08482, W101A); test: R-SAT HTS on M1 W101A receptor; assay type: cell-based; conditions: compound at 3 μM, triplicate retest, activity over basal cellular response
T1 construct: expressed in transfected cells
T1 sequence (P08482 1-460 W101A): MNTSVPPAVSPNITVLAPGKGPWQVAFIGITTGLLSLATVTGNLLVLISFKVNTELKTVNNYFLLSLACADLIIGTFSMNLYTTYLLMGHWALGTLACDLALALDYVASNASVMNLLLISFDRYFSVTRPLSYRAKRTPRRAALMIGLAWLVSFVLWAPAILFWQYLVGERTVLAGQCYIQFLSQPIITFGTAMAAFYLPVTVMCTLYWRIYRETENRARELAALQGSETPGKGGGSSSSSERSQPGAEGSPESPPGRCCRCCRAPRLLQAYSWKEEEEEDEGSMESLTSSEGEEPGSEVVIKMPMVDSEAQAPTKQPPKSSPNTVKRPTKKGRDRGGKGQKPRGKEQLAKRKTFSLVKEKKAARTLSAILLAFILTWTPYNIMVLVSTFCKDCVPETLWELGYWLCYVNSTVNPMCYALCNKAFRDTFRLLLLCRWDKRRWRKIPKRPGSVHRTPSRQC
Procedure: (§1) NIH-3T3 cells were grown in 96-well tissue culture plates to 70 to 80% confluence in Dulbecco's modified essential media (DMEM) supplemented with 100 units/ml penicillin, 100 micrograms/ml streptomycin, 0.3 mg/ml L-glutamine (1% PSG, GIBCO) and 10% calf serum (Sigma-Aldrich). Cells were transfected for 18 h with DMEM containing 0.08 micrograms/ml receptor DNA and 0.3 micrograms/ml pSI-Bgal (Promega, Madison Wis.), 0.5% v/v Polyfect (Qiagen, Valencia Calif.). Medium was replaced with DMEM containing 1% PSG, 0.5% calf serum, 2% cyto-sf3 (Kemp Biotechnologies, Frederick, Md.), and varying concentrations of ligand. […] Cells were grown in a humidified atmosphere with 5% ambient CO2 for 5 days. Medium was removed from the plates, and beta-galactosidase activity was measured by the addition of o-nitrophenyl -d-galactopyranoside in phosphate-buffered saline with 5% Nonidet P-40.
Cells were contacted with over 280,000 compounds at a concentration of 3 μM.

M1 W101A receptor [2] = target: T1, M1 W101A receptor; test: R-SAT HTS on M1 W101A receptor; assay type: cell-based; conditions: compound at 300 nM, triplicate retest, activity over basal cellular response
[3] = target: T2, rat M1 wild-type receptors (Rattus norvegicus, UniProt P08482); test: R-SAT functional assay, wild-type receptor; assay type: cell-based
T2 construct: expressed in transfected cells
T2 sequence (P08482 1-460): T1 sequence (P08482 1-460 W101A) with A101W
Procedure: (§2) Cells are co-transfected for 18 h with DMEM containing 0.08 micrograms/ml of an expression vector for the expression of the mutant receptor and 0.3 micrograms/ml pSI-Bgal (Promega, Madison Wis.), and 0.5% v/v Polyfect (Qiagen, Valencia Calif.), as recommended by the manufacturer. On day three, the medium is replaced with DMEM containing 1% PSG, 0.5% calf serum, 2% cyto-sf3 (Kemp Biotechnologies, Frederick, Md.), and varying concentrations of the compounds to be tested. Cells are grown in a humidified atmosphere with 5% ambient CO2 for 5 days. The media is removed from the plates, and beta-galactosidase activity is measured by the addition of o-nitrophenyl -d-galactopyranoside in phosphate-buffered saline with 5% Nonidet P-40. […] The following equation is fitted to the data using GraphPad Prism software (San Diego, Calif.):
as §1
(§3) Receptor Selection and Amplification (R-SAT™) Assays: R-SAT™ functional assays were carried out as follows. NIH-3T3 cells were grown in 96-well tissue culture plates to 70 to 80% confluence in Dulbecco's modified essential media (DMEM) supplemented with 100 units/ml penicillin, 100 micrograms/ml streptomycin, 0.3 mg/ml L-glutamine (1% PSG, GIBCO) and 10% calf serum (Sigma-Aldrich). Cells were transfected for 18 h with DMEM containing 0.08 micrograms/ml receptor DNA and 0.3 micrograms/ml pSI-Bgal (Promega, Madison Wis.), 0.5% v/v Polyfect (Qiagen, Valencia Calif.). The transfected cells were frozen away. Cells were thawed and added to 96 well plates with DMEM containing 1% PSG, 0.5% calf serum, 2% cyto-sf3 (Kemp Biotechnologies, Frederick, Md.), and varying concentrations of ligand.
(§4) In an effort to further characterize monoamine modulators, we used a panel of mutant muscarininc M1 receptors to analyze the activity and potency of orthosteric modulators and various allosteric modulators at those receptors.

rat M1 Y381A receptor = target: T3, rat M1 Y381A receptor (Rattus norvegicus, UniProt P08482, Y381A); test: R-SAT functional assay, Y381A mutant; assay type: cell-based
T3 construct: expressed in transfected cells; host or cells: NIH-3T3
T3 sequence (P08482 1-460 Y381A): T1 sequence (P08482 1-460 W101A) with A101W, Y381A
Procedure: as §2, §1, §3, §4

M1 Y381A receptor = target: T4, M1 Y381A receptor (Rattus norvegicus, UniProt P08482, Y381A); test: R-SAT antagonism of muscarinic agonists, Y381A; assay type: cell-based; conditions: M1 YS81A as printed; maximal inhibition of NDMC (3 μM) response
T4 construct: expressed in transfected cells; host or cells: NIH-3T3
T4 sequence (P08482 1-460 Y381A): T1 sequence (P08482 1-460 W101A) with A101W, Y381A
Procedure: as §3

rat M1 W101A receptor = target: T5, rat M1 W101A receptor (Rattus norvegicus, UniProt P08482, W101A); test: R-SAT functional assay, W101A mutant; assay type: cell-based; conditions: M1 W101A
T5 construct: expressed in transfected cells
T5 sequence (P08482 1-460 W101A): T1 sequence (P08482 1-460 W101A)
Procedure: as §2, §1, §3, §4

M1 Y381 mutant receptor = target: T6, M1 Y381 mutant receptor (Rattus norvegicus, UniProt P08482, Y381A); conditions: result in words; FIGS. 8A-8C
T6 sequence (P08482 1-460 Y381A): T1 sequence (P08482 1-460 W101A) with A101W, Y381A

[4] = Table 10, M1 Wild-Type, maximum response relative to carbachol
[5] = Table 10, M1 Y381A, maximum response relative to AC-42
[6] = Table 4, M1 wild type, maximum response relative to xanomeline
[7] = Table 4, maximum response relative to xanomeline
[8] = Table 4, M1 Y381A, maximum response relative to xanomeline

3 μM Avg. (M1 W101A receptor [1]) | 300 nM Avg (M1 W101A receptor [2]) | SMILES | also measured
4.65 | 3.90 | CCCOC1CCN(CCCn2c(=O)ccc3ccccc32)CC1 | 
4.51 | 4.15 | CCCOC1CCN(C[C@@H](C)CN2C(=O)COc3ccccc32)CC1 | 
4.44 | 4.11 | CCCOC1CCN(C[C@@H](C)CN2C(=O)CCc3ccccc32)CC1.O=C(O)C(=O)O | 
4.19 | 3.32 | CCCCC1CCN(CCCN2C(=O)CCc3cc(OC)ccc32)CC1.O=C(O)C(=O)O | 
4.17 | 3.81 | CCCC=C1CCN(C[C@@H](C)CN2C(=O)COc3ccc(F)cc32)CC1.O=C(O)C(=O)O | 
3.85 | 3.81 | CCCCC1CCN(CCCn2c(=O)ccc3cc(F)ccc32)CC1 | 
3.74 | 3.93 | CCCCC1CCN(C[C@@H](C)CN2C(=O)CCc3ccccc32)CC1.O=C(O)C(=O)O | 
3.60 | 3.13 | CCCCC1CCN(CCCN2C(=O)CCc3ccccc32)CC1.O=C(O)C(=O)O | 
3.55 | 4.16 | CCCCC1CCN(C[C@@H](C)CN2C(=O)COc3ccccc32)CC1.O=C(O)C(=O)O | 
3.35 | 2.87 | COCCC1CCN(CCCn2c(=O)sc3ccccc32)CC1.O=C(O)C(=O)O | 
3.34 | 3.30 | CCCCC1CCN(CCCN2C(=O)CSc3ccccc32)CC1.O=C(O)C(=O)O | 
3.18 | 2.58 | CC(C)COc1ccc(CC(=O)N(Cc2ccc(F)cc2)C2CCN(CCCN3C(=O)OC[C@@H]3C(C)C)CC2)cc1.O=C(O)C(=O)O | 
2.41 | 2.86 | CCCCC1CCN(CCCN2C(=O)COc3ccc(C(C)=O)cc32)CC1 | 

The next lines start with the compound.

SMILES | 3 μM Avg. (M1 W101A receptor [1]) | 300 nM Avg (M1 W101A receptor [2]) | also measured
CCCOC1CCN(C[C@@H](C)CN2C(=O)COc3ccccc32)CC1.O=C(O)C(=O)O | 4.63 | 4.14 | 
CCCCC1CCN(C[C@@H](C)Cn2c(=O)ccc3ccccc32)CC1.O=C(O)C(O)C(O)C(=O)O | 4.50 | 4.34 | 
CCCOC1CCN(C[C@@H](C)Cn2c(=O)ccc3ccccc32)CC1.O=C(O)C(=O)O | 4.37 | 4.29 | 
CCCCC1CCN(CCn2c(=O)[nH]c3ccccc32)CC1 | 3.67 | 3.26 | 
CCCCC1CCN(CCCN2C(=O)COc3ccccc32)CC1.O=C(O)C(=O)O | 3.23 | 3.86 | 
CCOCCC1CCN(CCCn2c(=O)[nH]c3ccccc32)CC1.O=C(O)C(F)(F)F | 2.83 | 2.70 | 
CCCCC1CCN(CCCn2c(=O)oc3c(Cl)cc(Cl)c(Cl)c32)CC1.O=C(O)C(=O)O | 2.60 | 2.36 | 
CN1CCN(C2=Nc3ccccc3Oc3ccc(Cl)cc32)CC1.O=C(O)CCC(=O)O [Loxapine] |  |  | % Eff [3, 4]: 3%; EC50 (rat M1 Y381A receptor; Table 10, M1 Y381A, NA = non-active, read-out: pEC50 (converted)): 1.26 µM; % Eff (rat M1 Y381A receptor; [5]): 165%
C[N+]1(C)[C@@H]2C[C@@H](OC(=O)[C@H](CO)c3ccccc3)C[C@H]1[C@@H]1O[C@@H]12 [NMS] |  |  | inhib (M1 Y381A receptor): 36%
O=C1CCCN1CC#CCN1CCCC1 [Oxotremorine] |  |  | % Eff [3, 6]: 91%; % Eff [3, 4]: 91%; EC50 ([3]; pEC50, Table 4, M1 wild type): 0.0794 µM; EC50 ([3]; pEC50, Table 10, M1 Wild-Type, NA = non-active): 0.0316 µM; % Eff (rat M1 W101A receptor; [7]): 87%; % Eff (rat M1 W101A receptor; Table 10, maximum response relative to AC-42): 120%; EC50 (rat M1 W101A receptor; pEC50, Table 4): 3.16 µM; EC50 (rat M1 W101A receptor; pEC50, Table 10): 2.51 µM; EC50 (rat M1 Y381A receptor): 3.98 µM; % Eff (rat M1 Y381A receptor; [8]): 8%; % Eff (rat M1 Y381A receptor; [5]): 23%
CCCCCCOc1nsnc1C1=CCCN(C)C1 [Xanomeline] |  |  | % Eff [3, 6]: 100%; % Eff (rat M1 W101A receptor; [7]): 106%; % Eff (rat M1 Y381A receptor; [8]): 100%
C[N+]1(C)[C@@H]2CC(OC(=O)[C@H](CO)c3ccccc3)C[C@H]1[C@@H]1O[C@@H]12 (some centres unmarked) [^3H-NMS, 1-[N-methyl-^3H]Scopolamine methyl chloride] |  |  | binding of ^3H-NMS to receptor (M1 Y381 mutant receptor): not to the Y381 mutant receptor
